# Laboratory results from paper PMC3189933, “Acylpeptide Hydrolase Inhibition as Targeted Strategy to Induce Proteasomal Down-Regulation” (PLoS ONE, 2011).
# Assays:
# [1] = target: T1, porcine APEH (Sus scrofa, UniProt P19205); experiment: Time-dependent inhibition of APEH; type: biochemical; settings: pre-incubation at least 20 min at 37°C, then diluted 1:5 into assay mixture with substrate
# T1 construct: mammalian APEHs purified from both porcine liver and human colon carcinoma intestinal cells (Caco-2); purchased Takara; host or cells: porcine liver
# T1 sequence (P19205 1-732): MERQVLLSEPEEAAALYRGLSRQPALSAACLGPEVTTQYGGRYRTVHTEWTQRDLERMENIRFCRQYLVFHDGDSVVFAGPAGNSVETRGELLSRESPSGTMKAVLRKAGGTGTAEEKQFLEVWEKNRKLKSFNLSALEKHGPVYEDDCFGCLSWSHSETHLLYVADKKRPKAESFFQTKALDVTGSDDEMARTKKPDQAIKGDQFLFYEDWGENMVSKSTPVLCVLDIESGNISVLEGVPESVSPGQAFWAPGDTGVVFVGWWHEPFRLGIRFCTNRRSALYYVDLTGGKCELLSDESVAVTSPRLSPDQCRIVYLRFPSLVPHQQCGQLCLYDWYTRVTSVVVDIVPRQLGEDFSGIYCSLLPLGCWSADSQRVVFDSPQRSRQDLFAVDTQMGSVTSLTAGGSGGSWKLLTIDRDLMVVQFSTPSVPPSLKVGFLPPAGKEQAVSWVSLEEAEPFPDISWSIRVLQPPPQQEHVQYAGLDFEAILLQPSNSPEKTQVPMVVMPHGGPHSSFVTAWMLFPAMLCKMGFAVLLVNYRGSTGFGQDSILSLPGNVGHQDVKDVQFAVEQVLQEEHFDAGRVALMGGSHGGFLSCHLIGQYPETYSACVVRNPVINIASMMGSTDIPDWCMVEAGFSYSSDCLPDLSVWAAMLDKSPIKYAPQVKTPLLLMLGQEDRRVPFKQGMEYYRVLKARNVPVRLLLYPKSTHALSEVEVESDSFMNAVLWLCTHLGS
# Protocol: The time-dependent inhibition of SsCEI 4 and t10c12-CLA towards APEH was assessed. Mixtures containing appropriate amounts of each inhibitor and of APEH were pre-incubated for 20 min at 37°C; they were then diluted (1∶5) into the standard assay mixture, which contained the substrate only. The enzymatic activity was followed as described above. Control samples were prepared by pre-incubating the same amounts of APEH without the inhibitors and then diluted in the standard assay mixture.
# [2] = system: APEH in Caco-2 cells; experiment: APEH activity in Caco-2 cells; settings: differentiated Caco-2 cells, 200 µM, 48 h (maximum effect)
# Protocol: Porcine liver APEH activity was measured spectrophotometrically using the chromogenic substrate acetyl-Ala-pNA (Bachem). The reaction mixture (1 mL) containing pure APEH (38 ng) or an appropriate amount of cell extract in 50 mM Tris-HCl buffer pH 7.5 (Tris Buffer), was preincubated at 37°C for 2 min. Then, 1 mM acetyl-Ala-pNA was added and the release of p-nitroanilide (ε410 = 8800 M-1 cm-1) was measured by recording the absorbance increase at 410 nm on a Cary 100 Scan (Varian) UV/Vis spectrophotometer, equipped with a thermostated cuvette compartment. APEH activity was expressed in IU. The APEHSs activity was measured using acetyl-Leu-pNA (0.1 mM) (Sigma) as substrate. The reaction mixture (1 mL) containing the appropriate amount of enzyme in 25 mM Tris-HCl buffer pH 7.5, was preincubated at 80°C for 2 min. Then, 0.1 mM acetyl-Leu-pNA was added and the release of p-nitroanilide was measured, following the standard assay procedure described above.
# Caco-2 cells (ATCC) were cultivated in DMEM supplemented with 10% FBS, 1 mM glutamine and 100 units/mL penicillin-streptomycin at 37°C in a humidified 5% CO2 atmosphere. The cells were studied between passages 12 and 22. The cells were split using trypsin-EDTA solution and plated in 6-well plates at a density of 8×10^4 cells/mL and the medium was replaced every 2–3 days. Under these conditions, the cells reached visual confluence after 7 days and the differentiated stage two weeks later. The differentiated cells were incubated for 48 h with the different substances.
# Following the treatments, the BHK and Caco-2 cells were washed three times with ice cold phosphate-buffered saline and collected immediately at 4°C in lysis buffer (1% Triton X-100, 0.1% SDS, 20 mM Tris-HCl, pH 8.0, 150 mM NaCl, 0.5% sodium deoxycholate and complete protease inhibitors [Roche]). The lysates were centrifuged at 10,000×g for 15 min at 4°C. The protein concentrations in the clear supernatants were determined (BCA protein assay reagent kit; Pierce) before their use in enzymatic assays or SDS–PAGE.
# [3] = system: ΔF508 CFTR-3HA (CFTR-M) in BHK cells; experiment: CFTR-M accumulation in BHK cells (immunoblot); type: cell-based, Baby Hamster; settings: 100 µM, 24 h, densitometry vs untreated
# Protocol: (§1) The cells were plated in 12-well plates, to a confluence of 60% for the 24-h incubations, and 40% for 48-h exposure to PIs. These treatments were initiated 24-h after the plating of the cells. Phase-contrast images of the cells were taken just before the lysis of the cells for protein analysis, using a Lica DM6000 inverted microscope.
# [4] = target: T2, partially purified proteasome from Caco-2 cells (Homo sapiens, UniProt P28074); experiment: CT-like activity of partially purified proteasome from Caco-2 cells (cell-free); type: biochemical; settings: proteasome 0.12 mg/mL, pre-incubated 30 min at 37°C
# T2 construct: a partially purified proteasome fraction from differentiated Caco-2 cells; endogenous in cells; host or cells: Caco-2
# T2 sequence (P28074 60-263): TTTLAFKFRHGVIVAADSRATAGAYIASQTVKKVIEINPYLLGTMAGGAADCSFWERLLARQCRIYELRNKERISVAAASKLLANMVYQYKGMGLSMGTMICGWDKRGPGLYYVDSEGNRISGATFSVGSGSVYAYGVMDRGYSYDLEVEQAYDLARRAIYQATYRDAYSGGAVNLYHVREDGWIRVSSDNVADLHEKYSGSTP
# Protocol: APEH from Sulfolobus solfataricus was purified as previously reported. Partial purification of human APEH and proteasome was carried out from protein extracts of Caco-2 cell. Briefly, protein extracts (500 µg) were fractionated by gel filtration chromatography on a Superdex 200 PC 3.2/30 column connected to a SMART System (Pharmacia) equilibrated in buffer 50 mM Tris-HCl, pH 7.5, 100 mM NaCl, at 0.1 mL/min. The eluted fractions were assayed using the specific substrates for APEH and the proteasome. The active fractions were collected and used for further analysis.
# (§2) Protease inhibitor activities of the SsCEI peptides and the CLA isomers were carried out using a fixed amount of APEH or partially purified proteasome (3–5 nM and 0.12 mg/mL, respectively), and increasing the SsCEI and CLA isomer concentrations. Mixtures were pre-incubated for 30 min at 37°C before the addition of the substrate, and the enzymatic activities were followed as described above. Protease inhibitor activities of the SsCEI peptides and the CLA isomers were determined towards APEHSs. The protease and increasing concentrations of the inhibitors were mixed and preincubated for 30 min at 80°C before the addition of the specific substrate. The residual enzymatic activity was determined using the assay procedure described above.
# [5] = system: APEH in BHK cells; experiment: APEH activity in BHK cells; type: cell-based, Baby Hamster; settings: 50 and 100 µM, 48 h
# Protocol: (§3) APEH activity was expressed in IU.
# as §1
# [6] = target: T1, porcine APEH; experiment: Inhibition of porcine liver APEH, Ac-Ala-pNA substrate; type: biochemical
# Protocol: as §3, §2
# All data were obtained from triplicate analyses of three different preparations. Data were presented as means ±S.D. Statistical analysis and IC50 values were calculated with the SigmaPlot 10.0 software through a non-linear curve-fitting method and using a simple binding isotherm equation. Groups were compared by Student's t test, and P<0.05 was considered as significant.
# [7] = system: proteasome CT-like activity in Caco-2 cells; experiment: CT-like proteasome activity in Caco-2 cells
# Protocol: The synthetic fluorescent substrate N-succinyl-Leu-Leu-Val-Tyr-7-amido-4-methylcoumarin (N-Suc-LLVT-AMC) was used for the measurement of the CT-like activity of the proteasome, at a final concentration of 0.080 mM. The reaction mixture (0.9 mL) containing appropriate amount of proteasome was preincubated as above, in Tris buffer. N-Suc-LLVT-AMC was added, and the release of the fluorescent product (7-AMC) was monitored for 5 min in a Perkin–Elmer LS 50B fluorimeter. The excitation and emission wavelengths were 380 nm and 460 nm, respectively.
# Caco-2 cells (ATCC) were cultivated in DMEM supplemented with 10% FBS, 1 mM glutamine and 100 units/mL penicillin-streptomycin at 37°C in a humidified 5% CO2 atmosphere. The cells were studied between passages 12 and 22. The cells were split using trypsin-EDTA solution and plated in 6-well plates at a density of 8×10^4 cells/mL and the medium was replaced every 2–3 days. […]
# Following the treatments, the BHK and Caco-2 cells were washed three times with ice cold phosphate-buffered saline and collected immediately at 4°C in lysis buffer (1% Triton X-100, 0.1% SDS, 20 mM Tris-HCl, pH 8.0, 150 mM NaCl, 0.5% sodium deoxycholate and complete protease inhibitors [Roche]). […] The protein concentrations in the clear supernatants were determined (BCA protein assay reagent kit; Pierce) before their use in enzymatic assays or SDS–PAGE.
# [8] = system: caspase-3 in Caco-2 cells; experiment: Caspase-3 activity in Caco-2 cells; type: cell-based, human; settings: 48 h
# Protocol: The pro-apoptotic ability of the peptides and the CLA isomers were assayed by measuring the caspase-3 and caspase-8 activities using fluorometric kits, according to the manufacturer instructions. These assays were based on hydrolysis of the substrate acetyl-Asp-Glu-Val-Asp-7-amido-4-methylcoumarin (Ac-DEVD-AMC) or acetyl-Ile-Glu-Thr-Asp-7-amino-4-methyl coumarin (Ac-IETD-AMC) by caspase-3 and caspase-8, respectively. The release of the 7-AMC moiety in protein extracts prepared from the differently treated cells was evaluated by fluorimetry (excitation 360 nm, emission 460 nm). Their amounts were calculated by means of a standard curve prepared with pure AMC, and following normalisation for protein content, the activities were expressed as nmoles AMC/mg protein/min.
smiles,measurement,setting,value
"CCCCC/C=C\C=C\CCCCCCCCC(=O)O [t10c12-CLA, trans10-cis12 CLA]",inhibition of APEH after pre-incubation with the enzyme,[1],43%
same,decrease of APEH activity in Caco-2 cells,[2],50%
same,increase of CFTR-M levels,[3],five
same,effect on partially purified proteasome CT-like activity,[4],not affected
same,APEH activity in BHK cells,[5],dose-dependent inhibition
same,IC50,"[6]; Ac-Ala-pNA 1 mM, 50 mM Tris-HCl pH 7.5, pre-incubated 30 min at 37°C, mean ± SD, read-out: IC50 towards porcine APEH",105 ± 23 µM
same,inhibition mechanism towards porcine APEH,[6]; Lineweaver-Burk plot,non–competitive
same,reduction in proteasomal CT-like activity,"[7]; 200 µM, 48 h",40%
same,dose-dependent decrease of CT-like proteasome activity in Caco-2 cells,"[7]; increasing concentrations, printed 'up to 45% of the residual activity' vs untreated",up to 45%
same,caspase-3 activity increase,"[8]; 200 µM, vs untreated, P<0.01",about two
same,"caspase-3 activity, dose response",[8]; increasing concentrations up to 200 µM,improved at increasing doses
